Reference: patent US20050228016A1, “TETRAHYDROQUINOLINES FOR MODULATING THE EXPRESSION OF EXOGENOUS GENES VIA AN ECDYSONE RECEPTOR COMPLEX” (priority 2002, published 2005)

Legend:
[1] = target: T1, Bombyx mori EcR (VP16-BmEcR, CVBE) (Bombyx mori, UniProt P49881); assay: Z3 assay (HEK-293 clone Z3 with CVBE and 6x EcRE LacZ, β-galactosidase reporter); assay type: cell-based; conditions: average of two wells; for Fold Induction Average, Z3V1 Assay 33 μM: 48 h
T1 construct: expressed in transfected cells
T1 sequence (P49881 86-606): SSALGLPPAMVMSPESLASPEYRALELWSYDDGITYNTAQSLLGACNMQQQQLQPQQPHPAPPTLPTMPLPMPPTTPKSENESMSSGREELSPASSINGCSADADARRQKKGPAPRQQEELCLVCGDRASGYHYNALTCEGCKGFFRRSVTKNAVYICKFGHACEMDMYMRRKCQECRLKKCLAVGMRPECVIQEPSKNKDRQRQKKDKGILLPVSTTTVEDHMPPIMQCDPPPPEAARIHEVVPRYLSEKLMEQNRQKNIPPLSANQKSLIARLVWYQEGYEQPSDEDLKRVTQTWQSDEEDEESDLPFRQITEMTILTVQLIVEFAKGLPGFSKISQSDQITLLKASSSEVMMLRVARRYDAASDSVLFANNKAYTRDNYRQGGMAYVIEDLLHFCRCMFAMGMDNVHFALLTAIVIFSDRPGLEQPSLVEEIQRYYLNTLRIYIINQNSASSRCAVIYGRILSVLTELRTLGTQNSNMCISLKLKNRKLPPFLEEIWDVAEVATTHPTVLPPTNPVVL
Text: Dr. F. Gage provided a population of stably transformed cells containing CVBE and 6× EcRE as described in (Suhr et. al. 1998). Human 293 kidney cells, also referred to as HEK-293 cells, were sequentially infected with retroviral vectors encoding first the switch construct CVBE, and subsequently the reporter construct 6× EcRE Lac Z. The switch construct contained the coding sequence for amino acids 26-546 from Bombyx nori EcR (BE) (Iatrou) inserted in frame and downstream of the VP16 transactivation domain (VBE). A synthetic ATG start codon was placed under the control of cytomegalovirus (CVBE) immediate early promoter and flanked by long terminal repeats (LTR). The reporter-construct contained six copies of the ecdysone response element (EcRE) binding site placed upstream of LacZ and flanked on both sides with LTR sequences (6× EcRE).
Dilution cloning was used to isolate individual clones. Clones were selected using 450 μg/ml G418 and 100 ng/ml puromycin. Individual clones were evaluated based on their response in the presence and absence of test ligands.
Human 293 kidney cells stably transformed with CVBE and 6× EcRE lack were maintained in Minimum Essential Medium (Mediates, 10-010-CV) containing 10%.FBS (Life Technologies, 26140-087),[…] G418 (Mediates, 30-234-CR), and […] (Sigma, P-7255), at 37° C. in an atmosphere containing 5% CO2 and were subculture when they reached 75% confluence.
Z3 cells were seeded into 96-well tissue culture plates at a concentration of 2.5×10^3 cells per well and incubated at 37° C. in 5% CO2 for twenty-four hours. Stock solutions of ligands were prepared in DMSO. Ligand stock solutions were diluted 100.fold in media and 50 μL of this diluted ligand solution (33 μM) was added to cells.
Reporter gene expression was evaluated 48 hours after treatment of cells, β-galactosidase activity was measured using Gal Screen™ bioluminescent reporter gene assay system from Tropix (GSY1000).
Flanking both constructs are long terminal repeats, G418 and puromycin are selectable markers, CMV is the cytomegalovirus promoter, VBE is coding sequence for amino acids 26-546 from Bombyx mori EcR inserted downstream of the VP16 transactivation domain, 6× EcRE is six copies of the ecdysone response element, lacZ encodes for the reporter enzyme β-galactosidase.

[2] = target: T2, Gal4DBD/AaEcR (DEF) (Aedes aegypti, UniProt P49880); assay: cell-based; assay type: cell-based; conditions: for Fold Induction Average, AA_3T3V1 Assay 33 μM: 3T3 cells, 48 h, average of two wells
T2 construct: The wildtype D, E, and F domains from mosquito Aedes aegypti EcR; expressed in transfected cells; host or cells: 3T3 cells
Experimental: 3T3 cells were trypsinized and plated at 2.5×10^3 cells/well on a 96-well plate. After incubation for 24 h at 37° C. under 5% CO2, cells were transfected with the Gal4DBD/AaEcR (DEF) gene expression cassette and the reporter plasmid, pFRLuc, containing a 5× GAL4 response element and the firefly luciferase gene in serum free media using Superfect (Qiagen). After transfection for 4 h at 37° C., the cells were treated with ligand in serum media. […] Single dose testing was performed at 33 μM.

T2 sequence (P28704 286-520 A311G/G315S/G445S/I449V): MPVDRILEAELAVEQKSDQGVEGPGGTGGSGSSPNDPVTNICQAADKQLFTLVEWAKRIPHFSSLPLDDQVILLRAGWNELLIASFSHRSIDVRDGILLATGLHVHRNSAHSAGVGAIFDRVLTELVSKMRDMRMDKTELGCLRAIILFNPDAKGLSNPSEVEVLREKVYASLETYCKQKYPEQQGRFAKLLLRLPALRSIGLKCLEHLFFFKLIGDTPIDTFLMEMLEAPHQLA
T2 sequence (P49880 405-776): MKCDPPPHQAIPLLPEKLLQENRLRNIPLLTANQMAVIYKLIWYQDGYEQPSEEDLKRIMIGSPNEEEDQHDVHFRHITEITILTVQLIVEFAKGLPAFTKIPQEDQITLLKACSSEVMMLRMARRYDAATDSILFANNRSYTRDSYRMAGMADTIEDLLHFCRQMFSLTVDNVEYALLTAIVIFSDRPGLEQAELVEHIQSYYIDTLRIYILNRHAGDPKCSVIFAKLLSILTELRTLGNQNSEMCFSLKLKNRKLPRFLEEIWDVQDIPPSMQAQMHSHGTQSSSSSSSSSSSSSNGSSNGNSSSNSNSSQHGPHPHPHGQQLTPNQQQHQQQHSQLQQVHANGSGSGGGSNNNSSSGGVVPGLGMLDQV

| SMILES | Fold Induction Average, Z3V1 Assay 33 μM [1] | Fold Induction Average, AA_3T3V1 Assay 33 μM [2] | fold induction at 33 µM ([1]; HEK293, 48 h, read-out: Fold Induction Average, Z3V1 Assay 33 μM) | fold induction at 33 µM ([2]; NIH3T3, read-out: Fold Induction Average, AA_3T3V1 Assay 33 μM) |
| --- | --- | --- | --- | --- |
| C[C@H]1C[C@H](Nc2ccccc2)c2ccccc2N1C(=O)c1ccccc1 (relative stereo) [Compound I-67] | 1 fold | 20 fold | – | – |
| C[C@H]1C[C@H](Nc2ccccc2)c2ccccc2N1C(=O)c1cccc(F)c1 (relative stereo) [Compound I-68] | 8 fold | 282 fold | – | – |
| C[C@H]1C[C@H](Nc2ccccc2)c2ccccc2N1C(=O)c1ccccc1C(F)(F)F (relative stereo) [Compound I-69] | 1 fold | 2 fold | – | – |
| C[C@H]1C[C@H](Nc2ccccc2)c2ccccc2N1C(=O)c1cccc(C(F)(F)F)c1 (relative stereo) [Compound I-70] | 26 fold | 376 fold | – | – |
| C[C@H]1C[C@H](Nc2ccccc2)c2ccccc2N1C(=O)c1ccc(C(F)(F)F)cc1 (relative stereo) [Compound I-71] | 2 fold | 291 fold | – | – |
| Cc1ccc(N[C@H]2C[C@H](C)N(C(=O)c3ccccc3)c3ccc(C)cc32)cc1 (relative stereo) [Compound I-72] | 1 fold | 114 fold | – | – |
| Cc1ccc(N[C@H]2C[C@H](C)N(C(=O)c3cccc(F)c3)c3ccc(C)cc32)cc1 (relative stereo) [Compound I-73] | 1 fold | 207 fold | – | – |
| Cc1ccc(N[C@H]2C[C@H](C)N(C(=O)c3ccccc3C(F)(F)F)c3ccc(C)cc32)cc1 (relative stereo) [Compound I-74] | 1 fold | 22 fold | – | – |
| Cc1ccc(N[C@H]2C[C@H](C)N(C(=O)c3cccc(C(F)(F)F)c3)c3ccc(C)cc32)cc1 (relative stereo) [Compound I-75] | 2 fold | 13 fold | – | – |
| Cc1ccc(N[C@H]2C[C@H](C)N(C(=O)c3ccc(C(F)(F)F)cc3)c3ccc(C)cc32)cc1 (relative stereo) [Compound I-76] | 1 fold | 741 fold | – | – |
| C[C@H]1C[C@H](Nc2ccc(F)cc2)c2cc(F)ccc2N1C(=O)c1cccc(F)c1 (relative stereo) [Compound I-77] | 153 fold | 272 fold | – | – |
| C[C@H]1C[C@H](Nc2ccc(F)cc2)c2cc(F)ccc2N1C(=O)c1ccccc1C(F)(F)F (relative stereo) [Compound I-78] | 3 fold | 33 fold | – | – |
| C[C@H]1C[C@H](Nc2ccc(F)cc2)c2cc(F)ccc2N1C(=O)c1cccc(C(F)(F)F)c1 (relative stereo) [Compound I-79] | 137 fold | 595 fold | – | – |
| C[C@H]1C[C@H](Nc2ccc(F)cc2)c2cc(F)ccc2N1C(=O)c1ccc(C(F)(F)F)cc1 (relative stereo) [Compound I-80] | 37 fold | 914 fold | – | – |
| COc1cccc(C(=O)N2c3ccccc3[C@@H](Nc3ccccc3)C[C@@H]2C)c1 (relative stereo) [Compound I-81] | 1 fold | 9 fold | – | – |
| Cc1ccc(C(=O)N2c3ccccc3[C@@H](Nc3ccccc3)C[C@@H]2C)cc1 (relative stereo) [Compound I-82] | 1 fold | 79 fold | – | – |

| SMILES | Fold Induction Average, Z3V1 Assay 33 μM [1] | Fold Induction Average, AA_3T3V1 Assay 33 μM [2] | fold induction at 33 µM ([1]; HEK293, 48 h, read-out: Fold Induction Average, Z3V1 Assay 33 μM) | fold induction at 33 µM ([2]; NIH3T3, read-out: Fold Induction Average, AA_3T3V1 Assay 33 μM) |
| --- | --- | --- | --- | --- |
| COc1ccc(C(=O)N2c3ccccc3[C@@H](Nc3ccccc3)C[C@@H]2C)cc1 (relative stereo) [Compound I-83] | 8 fold | 345 fold | – | – |
| COC(=O)c1ccc(C(=O)N2c3ccccc3[C@@H](Nc3ccccc3)C[C@@H]2C)cc1 (relative stereo) [Compound I-84] | 3 fold | 508 fold | – | – |
| Cc1ccc(N[C@H]2C[C@H](C)N(C(=O)c3cccc(C)c3)c3ccc(C)cc32)cc1 (relative stereo) [Compound I-85] | 1 fold | 3 fold | – | – |
| Cc1ccc(N[C@H]2C[C@H](C)N(C(=O)c3ccc(C)cc3)c3ccc(C)cc32)cc1 (relative stereo) [Compound I-87] | 1 fold | 250 fold | – | – |
| COc1ccc(C(=O)N2c3ccc(C)cc3[C@@H](Nc3ccc(C)cc3)C[C@@H]2C)cc1 (relative stereo) [Compound I-88] | 1 fold | 213 fold | – | – |
| COC(=O)c1ccc(C(=O)N2c3ccc(C)cc3[C@@H](Nc3ccc(C)cc3)C[C@@H]2C)cc1 (relative stereo) [Compound I-89] | 1 fold | 30 fold | – | – |
| Cc1cccc(C(=O)N2c3ccc(F)cc3[C@@H](Nc3ccc(F)cc3)C[C@@H]2C)c1 (relative stereo) [Compound I-90] | 33 fold | 433 fold | – | – |
| COc1cccc(C(=O)N2c3ccc(F)cc3[C@@H](Nc3ccc(F)cc3)C[C@@H]2C)c1 (relative stereo) [Compound I-91] | 107 fold | 542 fold | – | – |
| Cc1ccc(C(=O)N2c3ccc(F)cc3[C@@H](Nc3ccc(F)cc3)C[C@@H]2C)cc1 (relative stereo) [Compound I-92] | 100 fold | 229 fold | – | – |
| COc1ccc(C(=O)N2c3ccc(F)cc3[C@@H](Nc3ccc(F)cc3)C[C@@H]2C)cc1 (relative stereo) [Compound I-93] | 87 fold | 378 fold | – | – |
| C[C@H]1C[C@H](Nc2ccccc2)c2ccccc2N1C(=O)c1ccc(C(C)(C)C)cc1 (relative stereo) [Compound I-134] | 1 fold | 39 fold | – | – |
| COc1ccc(C(=O)N2c3ccc(C)cc3[C@@H](Nc3ccc(C)cc3)C[C@H]2C)cc1 (stereo in doubt) [Compound I-98, cis-2,6-dimethyl-1-(4-methoxybenzoyl)-4-(4-methylphenylamino)-1,2,3,4-tetrahydroquinoline] | – | – | 1 | 1 |
| CCc1ccc(C(=O)N2c3ccc(F)cc3C(Nc3ccc(F)cc3)CC2C)cc1 (centres unmarked) [Compound I-36] | 33 fold | 113 fold | – | – |
| COC(=O)c1ccc(C(=O)N2c3ccc(F)cc3C(Nc3ccc(F)cc3)CC2C)cc1 (centres unmarked) [Compound I-37] | 1 fold | 37 fold | – | – |
| CC1CC(Nc2ccc(F)cc2)c2cc(F)ccc2N1C(=O)c1ccc2c(c1)OCO2 (centres unmarked) [Compound I-38] | 10 fold | 76 fold | – | – |
